Measurements as given in ChEMBL document CHEMBL3727342, “Compounds and methods for kinase modulation, and indications therefor” (2012).

What was measured:
[1] = target: Mast/stem cell growth factor receptor Kit (Homo sapiens, UniProt P10721); assay: Inhibition of Kit (unknown origin) expressed in Escherichia coli
[2] = target: Tyrosine-protein kinase BTK (Homo sapiens, UniProt Q06187); assay: Inhibition of Btk (unknown origin) by FRET assay
[3] = target: RAF proto-oncogene serine/threonine-protein kinase (Homo sapiens, UniProt P04049); assay: Inhibition of human C-raf using biotin-MEK1 substrate incubated for 1 hr
[4] = target: Proto-oncogene tyrosine-protein kinase Src (Homo sapiens, UniProt P12931); assay: Inhibition of Src (unknown origin) expressed in Escherichia coli using biotin-(E4Y)3 substrate
[5] = target: Serine/threonine-protein kinase B-raf (Homo sapiens, UniProt P15056); assay: Inhibition of N-terminal GST-tagged human recombinant B-Raf (416 to end residues) using biotin-MEK1 substrate incubated for 1 hr
[6] = target: Vascular endothelial growth factor receptor 2 (Homo sapiens, UniProt P35968); assay: Inhibition of KDR (unknown origin) by FRET assay
Sequence of Vascular endothelial growth factor receptor 2 (P35968 whole entry): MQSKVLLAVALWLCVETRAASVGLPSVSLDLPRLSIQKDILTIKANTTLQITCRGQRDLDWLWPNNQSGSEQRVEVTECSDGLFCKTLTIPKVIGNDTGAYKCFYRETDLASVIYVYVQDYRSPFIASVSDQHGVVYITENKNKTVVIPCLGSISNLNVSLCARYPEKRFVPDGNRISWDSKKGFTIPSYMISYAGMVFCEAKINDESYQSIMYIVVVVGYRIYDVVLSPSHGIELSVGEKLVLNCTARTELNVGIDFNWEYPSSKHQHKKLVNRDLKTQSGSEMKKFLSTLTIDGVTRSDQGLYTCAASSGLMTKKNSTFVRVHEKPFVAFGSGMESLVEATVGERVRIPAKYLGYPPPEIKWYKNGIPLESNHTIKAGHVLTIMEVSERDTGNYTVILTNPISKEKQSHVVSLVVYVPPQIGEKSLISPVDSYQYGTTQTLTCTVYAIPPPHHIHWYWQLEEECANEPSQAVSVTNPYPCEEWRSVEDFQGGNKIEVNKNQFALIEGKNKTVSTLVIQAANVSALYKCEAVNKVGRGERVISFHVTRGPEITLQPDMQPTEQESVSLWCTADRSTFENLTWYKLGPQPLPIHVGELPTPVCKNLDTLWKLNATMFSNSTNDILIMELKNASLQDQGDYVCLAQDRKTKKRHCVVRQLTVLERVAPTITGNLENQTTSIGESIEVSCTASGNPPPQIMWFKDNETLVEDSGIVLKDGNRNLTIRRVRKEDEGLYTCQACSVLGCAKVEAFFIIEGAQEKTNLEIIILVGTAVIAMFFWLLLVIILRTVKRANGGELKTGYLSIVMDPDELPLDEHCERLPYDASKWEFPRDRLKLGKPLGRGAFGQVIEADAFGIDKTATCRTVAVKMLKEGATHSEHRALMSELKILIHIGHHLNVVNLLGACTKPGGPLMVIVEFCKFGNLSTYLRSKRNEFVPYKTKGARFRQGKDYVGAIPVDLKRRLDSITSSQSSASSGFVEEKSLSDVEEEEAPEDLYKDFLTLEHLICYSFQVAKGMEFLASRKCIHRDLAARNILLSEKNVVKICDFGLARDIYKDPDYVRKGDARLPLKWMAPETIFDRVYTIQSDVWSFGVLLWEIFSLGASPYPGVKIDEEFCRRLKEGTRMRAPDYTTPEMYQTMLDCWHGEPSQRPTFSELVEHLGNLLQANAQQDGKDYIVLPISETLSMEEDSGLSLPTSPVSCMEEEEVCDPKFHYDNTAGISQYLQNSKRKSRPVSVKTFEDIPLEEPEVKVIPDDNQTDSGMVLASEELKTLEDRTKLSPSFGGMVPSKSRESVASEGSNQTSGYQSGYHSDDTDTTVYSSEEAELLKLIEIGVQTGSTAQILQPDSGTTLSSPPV

Sequence of Mast/stem cell growth factor receptor Kit (P10721 whole entry): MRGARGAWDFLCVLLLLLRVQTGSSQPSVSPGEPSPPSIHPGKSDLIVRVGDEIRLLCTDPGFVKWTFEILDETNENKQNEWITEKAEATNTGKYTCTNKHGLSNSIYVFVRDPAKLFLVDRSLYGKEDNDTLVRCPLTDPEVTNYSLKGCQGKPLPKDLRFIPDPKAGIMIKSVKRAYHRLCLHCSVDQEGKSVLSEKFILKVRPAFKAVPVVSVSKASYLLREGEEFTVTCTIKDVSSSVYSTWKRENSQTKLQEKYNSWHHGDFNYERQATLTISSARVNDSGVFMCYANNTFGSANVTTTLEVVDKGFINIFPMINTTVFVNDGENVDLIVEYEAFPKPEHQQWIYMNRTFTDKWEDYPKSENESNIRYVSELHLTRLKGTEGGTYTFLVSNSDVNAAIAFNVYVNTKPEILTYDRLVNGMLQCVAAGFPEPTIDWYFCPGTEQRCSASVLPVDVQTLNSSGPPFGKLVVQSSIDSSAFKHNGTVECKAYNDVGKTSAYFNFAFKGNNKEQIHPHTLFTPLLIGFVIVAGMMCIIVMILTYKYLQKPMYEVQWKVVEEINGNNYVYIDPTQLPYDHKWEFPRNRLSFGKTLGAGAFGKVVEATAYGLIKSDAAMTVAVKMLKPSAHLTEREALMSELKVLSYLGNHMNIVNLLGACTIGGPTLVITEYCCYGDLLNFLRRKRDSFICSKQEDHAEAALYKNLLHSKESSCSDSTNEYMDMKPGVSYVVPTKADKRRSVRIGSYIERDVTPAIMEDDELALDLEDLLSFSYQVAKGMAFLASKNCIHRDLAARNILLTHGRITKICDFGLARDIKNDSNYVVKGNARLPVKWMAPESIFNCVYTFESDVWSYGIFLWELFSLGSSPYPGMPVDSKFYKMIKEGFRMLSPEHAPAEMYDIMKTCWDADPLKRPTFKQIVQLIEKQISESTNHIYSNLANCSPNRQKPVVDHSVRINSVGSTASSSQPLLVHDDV
Sequence of Serine/threonine-protein kinase B-raf (P15056 whole entry): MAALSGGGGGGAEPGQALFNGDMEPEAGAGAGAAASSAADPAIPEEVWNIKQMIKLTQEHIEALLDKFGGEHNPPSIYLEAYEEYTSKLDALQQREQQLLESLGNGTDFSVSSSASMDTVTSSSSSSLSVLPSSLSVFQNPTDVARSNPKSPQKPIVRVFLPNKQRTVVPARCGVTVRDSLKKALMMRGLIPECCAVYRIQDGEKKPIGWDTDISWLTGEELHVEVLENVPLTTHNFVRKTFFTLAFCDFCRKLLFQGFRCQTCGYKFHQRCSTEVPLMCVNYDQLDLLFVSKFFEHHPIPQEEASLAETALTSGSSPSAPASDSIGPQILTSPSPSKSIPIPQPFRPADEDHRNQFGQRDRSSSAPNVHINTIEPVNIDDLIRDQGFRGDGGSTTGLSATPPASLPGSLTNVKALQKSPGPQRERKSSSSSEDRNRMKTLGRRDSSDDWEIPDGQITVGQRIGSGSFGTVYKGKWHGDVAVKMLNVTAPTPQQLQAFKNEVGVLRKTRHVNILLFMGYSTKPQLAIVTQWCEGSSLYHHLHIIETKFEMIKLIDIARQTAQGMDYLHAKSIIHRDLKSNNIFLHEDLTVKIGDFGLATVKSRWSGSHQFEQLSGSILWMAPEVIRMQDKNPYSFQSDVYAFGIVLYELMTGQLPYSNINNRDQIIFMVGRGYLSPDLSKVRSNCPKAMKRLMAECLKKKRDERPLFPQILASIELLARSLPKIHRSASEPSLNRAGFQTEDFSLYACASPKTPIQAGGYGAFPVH
Sequence of Tyrosine-protein kinase BTK (Q06187 whole entry): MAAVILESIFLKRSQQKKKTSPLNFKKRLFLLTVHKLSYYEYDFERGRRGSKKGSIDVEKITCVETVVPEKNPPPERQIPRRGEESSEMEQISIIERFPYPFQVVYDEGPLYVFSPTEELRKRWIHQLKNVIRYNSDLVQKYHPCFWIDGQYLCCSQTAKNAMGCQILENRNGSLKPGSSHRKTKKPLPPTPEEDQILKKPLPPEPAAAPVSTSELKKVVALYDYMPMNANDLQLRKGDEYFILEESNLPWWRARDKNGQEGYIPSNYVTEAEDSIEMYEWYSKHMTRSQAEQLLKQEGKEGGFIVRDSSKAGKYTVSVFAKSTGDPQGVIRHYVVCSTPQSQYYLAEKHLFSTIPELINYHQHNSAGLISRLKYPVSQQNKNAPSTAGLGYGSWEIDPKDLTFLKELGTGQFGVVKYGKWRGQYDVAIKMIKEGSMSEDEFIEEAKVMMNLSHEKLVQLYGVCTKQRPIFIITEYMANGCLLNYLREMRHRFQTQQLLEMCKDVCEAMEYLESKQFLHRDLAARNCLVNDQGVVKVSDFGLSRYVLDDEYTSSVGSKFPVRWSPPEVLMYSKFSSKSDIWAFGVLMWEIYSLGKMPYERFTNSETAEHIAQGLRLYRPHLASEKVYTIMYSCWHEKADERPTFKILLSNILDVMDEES
Sequence of Proto-oncogene tyrosine-protein kinase Src (P12931 2-536 limits assumed): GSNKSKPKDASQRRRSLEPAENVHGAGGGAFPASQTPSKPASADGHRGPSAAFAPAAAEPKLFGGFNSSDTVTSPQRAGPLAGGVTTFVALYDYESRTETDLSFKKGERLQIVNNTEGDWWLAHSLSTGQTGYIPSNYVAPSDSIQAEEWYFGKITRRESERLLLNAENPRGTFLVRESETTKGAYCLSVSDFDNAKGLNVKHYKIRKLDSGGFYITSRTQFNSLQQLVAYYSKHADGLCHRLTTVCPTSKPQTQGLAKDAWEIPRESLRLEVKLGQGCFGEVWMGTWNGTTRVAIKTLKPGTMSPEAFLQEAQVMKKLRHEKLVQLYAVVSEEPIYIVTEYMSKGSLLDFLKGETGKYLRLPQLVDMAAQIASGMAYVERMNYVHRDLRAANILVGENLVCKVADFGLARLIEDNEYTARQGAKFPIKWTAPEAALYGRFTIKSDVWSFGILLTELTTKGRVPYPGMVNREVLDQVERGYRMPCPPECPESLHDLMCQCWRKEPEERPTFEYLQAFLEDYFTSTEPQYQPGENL
Sequence of RAF proto-oncogene serine/threonine-protein kinase (P04049 whole entry): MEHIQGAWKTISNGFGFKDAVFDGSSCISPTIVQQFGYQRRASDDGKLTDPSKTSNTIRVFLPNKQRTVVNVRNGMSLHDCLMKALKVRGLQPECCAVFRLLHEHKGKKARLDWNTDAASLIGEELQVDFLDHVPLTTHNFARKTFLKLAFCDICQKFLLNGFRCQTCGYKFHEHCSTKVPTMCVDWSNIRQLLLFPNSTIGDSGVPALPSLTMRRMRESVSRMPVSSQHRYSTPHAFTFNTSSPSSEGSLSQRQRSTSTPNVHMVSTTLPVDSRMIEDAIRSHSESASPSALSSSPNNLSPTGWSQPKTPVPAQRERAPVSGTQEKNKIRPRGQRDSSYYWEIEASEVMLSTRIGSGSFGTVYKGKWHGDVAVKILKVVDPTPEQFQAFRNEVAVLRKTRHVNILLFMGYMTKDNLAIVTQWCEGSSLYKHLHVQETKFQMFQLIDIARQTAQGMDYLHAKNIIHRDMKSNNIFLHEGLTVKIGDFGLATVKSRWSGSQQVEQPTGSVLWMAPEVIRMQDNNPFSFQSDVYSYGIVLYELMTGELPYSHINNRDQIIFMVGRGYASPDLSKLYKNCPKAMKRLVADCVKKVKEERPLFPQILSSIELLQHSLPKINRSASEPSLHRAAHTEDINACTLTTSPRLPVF

IC50 [1]: ≤ 10 µM
IC50 [2]: ≤ 10 µM
IC50 [3]: ≤ 10 µM
IC50 [4]: ≤ 10 µM
IC50 [5]: ≤ 10 µM
IC50 [6]: ≤ 10 µM
SMILES: O=C(c1cccc(NS(=O)(=O)c2c(F)cccc2F)c1F)c1c[nH]c2ncncc12
